From patent US20020182587A1, “Methods and compositions for the treatment and prevention of smooth muscle cell proliferation” (priority 2001, published 2002)

Tests used:
[1] = tested on: neointima formation following balloon catheter-induced injury of the common carotid arteries; test: Neointima formation after balloon catheter-induced injury of the common carotid arteries; type: in vivo, male Wistar rats
Method: Two of test compounds discovered using the methods of the present invention, particularly shown in Example VI, compositions RUS 3052 and RUS 3108, were evaluated for efficacy in the reduction of neointima formation following balloon catheter-induced injury of the common carotid arteries of male Wistar rats. Thirty-two rats were divided into groups of eight animals per group: two test compound groups and two control groups. The two control groups were the positive control, 5 mg/kg probucol, and the negative control, the vehicle for the test compositions and the positive control probucol. […] The vehicle solution was 10% DMSO, 10% cremophor, 20% propylene glycol in water for injection. Test compositions RUS 3052 and RUS 3108 were initially administered at 5 mg/kg up to and including the day of surgery. Starting the day after surgery, until the end of the study, the dosage of all compositions was lowered to 1 mg/kg. The test compositions were prepared by combining 5 mg of the test compound or control with 100 μl DMSO, 100 μl cremophor EL, and 200 μl propylene glycol with intermittent mixing using a cyclomixer. Water for injection was added in 100 μl aliquots to give a final volume of 1 ml.
The test compositions and controls were administered daily by intraperitoneal injection starting 72 hours prior to the surgical procedure and continued until necropsy, 14 days after the procedure. One animal from each of the four groups underwent the surgical procedure each day using a #2F Fogarty embolectomy catheter. An embolectomy catheter was introduced into the right external carotid artery and retrogradely passed to the aortic arch through the common carotid artery. The balloon was inflated with sterile saline and then pulled to the common carotid-external carotid bifurcation. […]
Fourteen days post-surgery, the animals of Example VII were euthanized and the damaged right carotid arteries were collected, sectioned and stained with modified elastin-trichrome, and then analyzed for neointima formation that was quantified by histomorphometric analysis. […]

human aortic SMC = test: (3H)thymidine DNA synthesis / proliferation of sub-confluent SMC; type: cell-based; settings: purified perlecan added to 10% serum-containing medium, 24 h
Method: Smooth muscle cells reach quiescence during serum starvation resulting in a blockade of DNA synthesis. […] The cells used in this Example and the other examples herein were human aortic SMC, grown in basal medium supplemented with growth factors, bFGF and epidermal growth factor (EGF) (Clonetics, San Diego, Calif.).
The addition of perlecan to serum-containing medium inhibited SMC growth by 70% (FIG. 2). Sub-confluent SMC (40-50% confluence) were incubated in serum-free medium or 10% serum-containing medium with or without purified perlecan for 24 h. DNA synthesis was then determined by incubating cells for another 5 h in medium containing (^3H)thymidine. TCA precipitable (DNA) thymidine counts were determined and expressed as percentage of DNA synthesis in cells grown in 10%FBS.
Perlecan, induced in serum-free conditions, was required for the blockade of DNA synthesis observed in serum-free conditions. The anti-perlecan antibody of Example I was used to block perlecan. Sub-confluent levels of SMC (40-50% confluence) were incubated in serum-free medium containing 0, 5, 10 and 20 μg of mouse IgG or anti-perlecan IgG for 24 hours. DNA synthesis was then determined by incubating cells for another 5 hours in medium containing (^3H)thymidine. TCA precipitable (DNA) (^3H)thymidine counts were determined and expressed as percentage of DNA synthesis in cells grown in 10% FBS. […]

| Molecule | IA/MA Average ± STD (n), Based on Section Averages ([1]; rat, i.p. daily, 5 mg/kg up to surgery then 1 mg/kg, 14 days post-surgery, all sections within group) | IA/MA Average ± STD (n), Based on Animal Averages ([1]; rat, i.p. daily, 5 mg/kg up to surgery then 1 mg/kg, 14 days post-surgery, sections with IA/MA > 0.0915) | reduction of neointima formation in comparison to the negative control group ([1]; significance set at p<0.20) | inhibition of SMC growth (DNA synthesis, percentage of cells grown in 10% FBS) (human aortic SMC) [%] |
| --- | --- | --- | --- | --- |
| CC(C)(Sc1cc(C(C)(C)C)c(O)c(C(C)(C)C)c1)Sc1cc(C(C)(C)C)c(O)c(C(C)(C)C)c1 [Probucol, probucol] | 0.71 ± 0.30 (9) | 0.65 ± 0.25 (3) | effective in significantly reducing neointima formation |  |
| perlecan |  |  |  | 70 |
